Test results taken from paper PMC2409906, “Establishment and characterisation of a human carcinoma cell line with acquired resistance to Aplidin™” (British Journal of Cancer, 2004).
Starred links: 1 amine or outer side, 2 acyl side, 3 side chain; linkers in the order of their positions; H or OH if unused. Positions of bridges follow the written chain, without caps; N, C: chain ends. Non-standard residues stand in square brackets, D forms with d. Residues, ends and D or L forms follow the SMILES beside them. *: point of attachment. X1 = CC[C@H](C)[C@@H](N[*:1])[C@@H](O)CC(=O)O[C@H](C(=O)[C@H](C)C(=O)[*:2])C(C)C; X3 = CC[C@H](C)[C@@H](N[*:1])[C@@H](O)CC(=O)[*:2]; X2 = CN(C)c1ccc2c(CC(=O)*)cc(=O)oc2c1; NMeY = CN[C@@H](Cc1ccc(O)cc1)C(=O)O; dNMeL = CN[C@H](CC(C)C)C(=O)O; Hiv = CC(C)[C@H](O)C(=O)O; Pyruvoyl = CC(=O)C(=O)*; Lac = C[C@H](O)C(=O)O

Experiments:
human leukaemia samples = conditions: ref Bresters et al, 2003; cited from earlier work
HeLa-APL cells = assay: Sulphorhodamine B (SRB) growth inhibition assay, resistant subline; assay type: cell-based, human; conditions: HeLa-APL vs HeLa wt; for crossresistance of HeLa-APL cells (IC50 values, SRB cell growth assay): 48 or 72 h exposure; for crossresistance of HeLa-APL cells: data not shown
Experimental: HeLa, HeLa-APL, LoVo and LoVo-dox ([Grandi et al, 1986]) cells were maintained in DMEM supplemented with 10% FCS and 100 U ml^−1 penicillin and streptomycin at 37°C and 5% CO2.
Cells were washed twice with PBS, fixed for 15 min in 1% glutaraldehyde solution, rinsed twice in PBS, and stained in 0.4% SRB solution for 30 min at room temperature. Cells were then rinsed several times with 1% acetic acid solution and air-dried. Sulphorhodamine B was then extracted in 10 mM trizma base solution and the absorbance measured at 490 nm. Cell survival was expressed as percentage of control cell growth.

[1] = tested on: HeLa wt and HeLa-APL cells; assay: Detection of drug in cell extracts by Maldi-TOF mass spectrometry; assay type: in vitro ADME, human; conditions: 450 nM, 1 h exposure, methanol cell extracts, Maldi-TOF MS, parental and HeLa-APL cells
Experimental: To detect minute amounts of APL present in the cellular extracts, Matrix-Assisted Laser Desorption/Ionisation-Time Of Flight Mass Spectrometry (Maldi-TOF MS) technique was used. Cell cultures were treated with vehicle or APL at the concentrations and times indicated in the text, washed with PBS and harvested by centrifugation at 6000 r.p.m. for 5 min at 4°C. Cell pellets were washed with PBS and extracted with cold methanol. Equal amounts of extract were applied on a template, air dried, mixed with 0.2–0.5 μl matrix (10 mg ml^−1 dihydroxy benzoic acid in water :acetonitrile mix, 1% trifluoroacetic acid) and air dried. Analyses were performed on a Voyager DE Pro (PerSeptive Biosystems, Framingham, MS, USA). Mass spectra were averaged over 100–200 laser shots from a nitrogen laser (337 nm) operating in a linear mode. Ionised molecules were accelerated with a voltage of 20 kV. The following peptides were used as external markers: intact human insulin, human insulin alpha-chain, human insulin beta-chain and cytochrome c.

[2] = tested on: HeLa wt and HeLa-APL cells; assay: Intracellular accumulation of fluorescent APL-dmac (fluorescence microscopy); assay type: in vitro ADME, human
Experimental: (§1) Cells were stained with APL-dmac, Calcein-AM or Hoechst-33342 by direct addition of the fluorescent compounds in the cell culture dishes, incubated at 37°C for the times indicated, washed in PBS and examined by fluorescence microscopy.

[3] = set-up: method as in Vervoort and Fenical, 2000; Joullie et al, 2003; conditions: ref Vervoort and Fenical, 2000; Joullie et al, 2003; cited from earlier work
Pgp170 in LoVo-Dox cells = molecular target: T1, Pgp170 in LoVo-Dox cells (Homo sapiens, UniProt P08183); assay: Calcein-AM accumulation in LoVo-Dox cells (fluorescence microscopy); assay type: cell-based; conditions: 50 μM verapamil, Calcein-AM loaded for 1 h
T1 construct: endogenous in cells; host or cells: LoVo-Dox (doxorubicin-selected LoVo colorectal carcinoma cells)
Experimental: as §1

T1 sequence (P08183 whole entry): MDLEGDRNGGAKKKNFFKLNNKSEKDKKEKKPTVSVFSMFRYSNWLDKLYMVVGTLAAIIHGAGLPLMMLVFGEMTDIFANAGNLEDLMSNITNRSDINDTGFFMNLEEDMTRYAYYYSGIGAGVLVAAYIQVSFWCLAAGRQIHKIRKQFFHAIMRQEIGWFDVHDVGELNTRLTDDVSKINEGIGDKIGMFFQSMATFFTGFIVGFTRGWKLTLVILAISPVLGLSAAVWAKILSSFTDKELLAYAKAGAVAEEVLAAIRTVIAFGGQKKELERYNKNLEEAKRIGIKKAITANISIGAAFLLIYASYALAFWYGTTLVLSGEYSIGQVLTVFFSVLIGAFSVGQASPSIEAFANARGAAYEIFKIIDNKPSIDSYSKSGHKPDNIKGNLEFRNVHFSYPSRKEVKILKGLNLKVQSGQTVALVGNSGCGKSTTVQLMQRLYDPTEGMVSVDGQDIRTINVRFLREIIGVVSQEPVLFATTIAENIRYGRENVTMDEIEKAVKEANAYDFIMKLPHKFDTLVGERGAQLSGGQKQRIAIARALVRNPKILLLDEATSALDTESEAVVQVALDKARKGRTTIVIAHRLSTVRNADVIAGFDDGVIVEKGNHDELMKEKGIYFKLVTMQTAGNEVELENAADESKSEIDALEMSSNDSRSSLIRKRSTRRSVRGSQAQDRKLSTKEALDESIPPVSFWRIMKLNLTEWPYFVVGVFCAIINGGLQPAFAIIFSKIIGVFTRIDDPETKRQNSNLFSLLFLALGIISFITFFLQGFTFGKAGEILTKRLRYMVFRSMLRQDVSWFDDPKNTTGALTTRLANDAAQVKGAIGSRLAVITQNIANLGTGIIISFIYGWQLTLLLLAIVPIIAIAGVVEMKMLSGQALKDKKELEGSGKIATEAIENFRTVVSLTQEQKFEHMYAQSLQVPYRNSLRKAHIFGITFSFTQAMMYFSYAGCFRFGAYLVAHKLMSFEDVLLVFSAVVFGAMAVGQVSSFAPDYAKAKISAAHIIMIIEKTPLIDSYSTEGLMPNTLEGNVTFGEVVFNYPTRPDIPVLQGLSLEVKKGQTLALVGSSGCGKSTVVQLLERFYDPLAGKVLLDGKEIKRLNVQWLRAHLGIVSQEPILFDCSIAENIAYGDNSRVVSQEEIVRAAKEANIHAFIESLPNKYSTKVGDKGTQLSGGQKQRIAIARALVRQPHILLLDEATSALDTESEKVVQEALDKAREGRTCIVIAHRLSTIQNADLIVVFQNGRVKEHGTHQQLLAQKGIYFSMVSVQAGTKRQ

Compound: Nc1ccn([C@@H]2O[C@H](CO)[C@@H](O)C2(F)F)c(=O)n1 [2′,2′-difluorodeoxycytidine]
- crossresistance with APL (human leukaemia samples): trend for crossresistance

Compound: Nc1ncn([C@@H]2O[C@H](CO)[C@@H](O)[C@H]2O)c(=O)n1 [5-azacytidine]
- crossresistance of HeLa-APL cells (IC50 values, SRB cell growth assay) (HeLa-APL cells; triplicate plates): no significant crossresistance

Compound: Sc1ncnc2nc[nH]c12 [6-mercaptopurine]
- crossresistance of HeLa-APL cells (IC50 values, SRB cell growth assay) (HeLa-APL cells; triplicate plates): no significant crossresistance

Compound: Nc1nc2nc[nH]c2c(=S)[nH]1 [6-thioguanine]
- crossresistance of HeLa-APL cells (IC50 values, SRB cell growth assay) (HeLa-APL cells; triplicate plates): no significant crossresistance

Compound: CC[C@H](C)[C@H]1NC(=O)[C@@H](NC(=O)[C@@H](CC(C)C)N(C)C(=O)[C@@H]2CCCN2C(=O)C(C)=O)[C@@H](C)OC(=O)[C@H](Cc2ccc(OC)cc2)N(C)C(=O)[C@@H]2CCCN2C(=O)[C@H](CC(C)C)NC(=O)[C@@H](C)C(=O)[C@H](C(C)C)OC(=O)C[C@@H]1O [APL, Aplidin™] (Pyruvoyl-P[dNMeL]T[X1]LP[NMeY](Me); ester 3-C)
- presence of the intact drug in cells [1]: confirmed

Compound: CC[C@H](C)[C@H]1NC(=O)[C@@H](NC(=O)[C@@H](CC(C)C)N(C)C(=O)Cc2cc(=O)oc3cc(N(C)C)ccc23)[C@@H](C)OC(=O)[C@H](Cc2ccc(OC)cc2)N(C)C(=O)[C@@H]2CCCN2C(=O)[C@H](CC(C)C)NC(=O)[C@@H](C)C(=O)[C@H](C(C)C)OC(=O)C[C@@H]1O [APL-dmac, aplidin-dimethylaminocoumarin] (X2-[dNMeL]T[X1]LP[NMeY](Me); ester 2-C)
- internalisation and accumulation in the cytoplasmic compartment ([2]; 450 nM APL-dmac, 1 h, 37°C, HeLa wt and HeLa-APL): consistent in both cell systems
- internalisation after long-term treatment ([2]; not shown): remained internalised
- presence of the intact drug in cells [1]: detected in both cell lines

Compound: COc1cc(NS(C)(=O)=O)ccc1Nc1c2ccccc2nc2ccccc12 [amsacrine]
- crossresistance of HeLa-APL cells (HeLa-APL cells): no significant crossresistance

Compound: CC[C@@]1(O)C(=O)OCc2c1cc1n(c2=O)Cc2cc3ccccc3nc2-1 [camptothecin]
- crossresistance of HeLa-APL cells (IC50 values, SRB cell growth assay) (HeLa-APL cells; triplicate plates): no significant crossresistance

Compound: O=C(O)CCCc1ccc(N(CCCl)CCCl)cc1 [chlorambucil]
- crossresistance of HeLa-APL cells (HeLa-APL cells): no significant crossresistance

Compound: N.N.[Cl][Pt][Cl] [cisplatin]
- crossresistance of HeLa-APL cells (IC50 values, SRB cell growth assay) (HeLa-APL cells; triplicate plates): no significant crossresistance

Compound: COc1cccc2c1C(=O)c1c(O)c3c(c(O)c1C2=O)C[C@@](O)(C(=O)CO)C[C@@H]3O[C@H]1C[C@H](N)[C@H](O)[C@H](C)O1 [doxorubicin]
- crossresistance of HeLa-APL cells (IC50 values, SRB cell growth assay) (HeLa-APL cells; triplicate plates): no significant crossresistance

Compound: COc1cc([C@@H]2c3cc4c(cc3[C@@H](O[C@@H]3O[C@@H]5CO[C@@H](C)O[C@H]5[C@H](O)[C@H]3O)[C@H]3COC(=O)[C@H]23)OCO4)cc(OC)c1O [etoposide]
- crossresistance of HeLa-APL cells (IC50 values, SRB cell growth assay) (HeLa-APL cells; triplicate plates): no significant crossresistance

Compound: Nc1nc(F)nc2c1ncn2[C@@H]1O[C@H](CO)[C@@H](O)[C@@H]1O [fludarabine]
- crossresistance of HeLa-APL cells (IC50 values, SRB cell growth assay) (HeLa-APL cells; triplicate plates): no significant crossresistance

Compound: N[C@@H](Cc1ccc(N(CCCl)CCCl)cc1)C(=O)O [melphalan]
- crossresistance of HeLa-APL cells (HeLa-APL cells): no significant crossresistance

Compound: O=C1c2c(O)ccc(O)c2C(=O)c2c(NCCNCCO)ccc(NCCNCCO)c21 [mitoxantrone]
- crossresistance of HeLa-APL cells (HeLa-APL cells): no significant crossresistance

Compound: CC(=O)O[C@H]1C(=O)[C@@]2(C)[C@H]([C@H](OC(=O)c3ccccc3)[C@]3(O)C[C@H](OC(=O)[C@H](O)[C@@H](NC(=O)c4ccccc4)c4ccccc4)C(C)=C1C3(C)C)[C@]1(OC(C)=O)CO[C@@H]1C[C@@H]2O [paclitaxel]
- crossresistance of HeLa-APL cells (IC50 values, SRB cell growth assay) (HeLa-APL cells; triplicate plates): no significant crossresistance

Compound: CC[C@H](C)[C@H]1NC(=O)[C@@H](NC(=O)[C@@H](CC(C)C)N(C)C(=O)[C@@H]2CCCN2C(=O)[C@H](C)O)[C@@H](C)OC(=O)[C@H](Cc2ccc(OC)cc2)N(C)C(=O)[C@@H]2CCCN2C(=O)[C@H](CC(C)C)NC(=O)[C@H](C(C)C)OC(=O)C[C@@H]1O [tamandarin A] (H-[Lac]P[dNMeL]T[X3][Hiv]LP[NMeY](Me); ester 4-C)
- cytotoxic activity relative to APL [3]: comparable to that of APL

Compound: COc1ccc(CCN(C)CCCC(C#N)(c2ccc(OC)c(OC)c2)C(C)C)cc1OC (centres unmarked) [verapamil]
- effect of pre-incubation on calcein-AM accumulation (Pgp170 in LoVo-Dox cells): accumulation of calcein-AM in LoVo-Dox-resistant cells to an extent similar to that observed in sensitive LoVo cells

Compound: CC[C@]1(O)C[C@@H]2CN(CCc3c([nH]c4ccccc34)[C@@](C(=O)OC)(c3cc4c(cc3OC)N(C)[C@H]3[C@@](O)(C(=O)OC)[C@H](OC(C)=O)[C@]5(CC)C=CCN6CC[C@]43[C@@H]65)C2)C1 [vinblastine]
- crossresistance of HeLa-APL cells (IC50 values, SRB cell growth assay) (HeLa-APL cells; triplicate plates): no significant crossresistance

Compound: didemnin B
- cytotoxic activity relative to APL [3]: comparable to that of APL
- crossresistance of HeLa-APL cells to APL structural analogues (HeLa-APL cells; 48 h exposure, SRB assay, triplicate plates): comparable crossresistance
